Experimental data taken from patent US11319315B2, “Cyclohexyl acid triazole azoles as LPA antagonists” (BRISTOL-MYERS SQUIBB COMPANY, priority 2017, dated 2022).
Like-named read-outs stand apart in the source and are kept apart here.

Target: T1, human LPA1 (Homo sapiens, UniProt Q92633)
T1 construct: expressed in transfected cells; host or cells: Chinese hamster ovary (CHO) cells
Test: LPA1 functional antagonist assay (LPA-induced calcium flux in CHO cells overexpressing human LPA1)
Format: cell-based
Conditions: read-out: hLPA1 IC50
Method in brief: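 CHO cells overexpressing human LPA1, dye-loaded 30 min at 37 °C, then given compound (0.08 nM–5 μM final, 0.5% DMSO) in HBSS/20 mM HEPES/0.1% fatty-acid-free BSA for 20 min at room temperature before 10 nM LPA. IC50 as 50% inhibition of LPA-evoked calcium flux, 4-parameter logistic fit.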

[1] = inhibition of calcium flux induced by 10 nM LPA, CHO cells overexpressing human LPA1

T1 sequence (Q92633 whole entry): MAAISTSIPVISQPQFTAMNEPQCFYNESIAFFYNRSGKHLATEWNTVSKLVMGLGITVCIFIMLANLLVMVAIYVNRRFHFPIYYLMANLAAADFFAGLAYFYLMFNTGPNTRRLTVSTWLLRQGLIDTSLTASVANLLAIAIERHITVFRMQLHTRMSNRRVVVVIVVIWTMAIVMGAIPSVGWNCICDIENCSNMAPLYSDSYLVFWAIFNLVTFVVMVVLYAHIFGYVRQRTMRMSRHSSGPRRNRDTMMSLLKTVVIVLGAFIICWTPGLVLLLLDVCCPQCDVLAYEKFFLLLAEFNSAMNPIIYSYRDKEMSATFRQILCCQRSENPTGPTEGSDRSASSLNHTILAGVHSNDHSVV

Row | IC50 [1] [nM] | IC50 [nM] | SMILES
1 |  | 384 | Cc1nc(-c2nnn(C)c2Cn2nnc(C3CC3)n2)ccc1O[C@H]1CCC[C@H](C(=O)O)C1 [Example 412, (1S,3S)-3-((6-(5-((5-cyclopropyl-2H-tetrazol-2-yl)methyl)-1-methyl-1H-1,2,3-triazol-4-yl)-2-methyl-pyridin-3-yl)oxy)cyclohexane-1-carboxylic acid]
2 | 963 |  | Cc1cc(C)n(Cc2nnn(Cc3c(-c4ccc(O[C@H]5CCC[C@H](C(=O)O)C5)c(C)n4)nnn3C)n2)n1 [Example 301, (1S,3S)-3-({6-[5-({5-[(3,5-dimethyl-1H-pyrazol-1-yl)methyl]-2H-1,2,3,4-tetrazol-2-yl}methyl)-1-methyl-1H-1,2,3-triazol-4-yl]-2-methylpyridin-3-yl}oxy)cyclohexane-1-carboxylic acid]
3 | 51 |  | Cc1nc(-c2nnn(C)c2CNc2noc(CCC3CC3)n2)c(F)cc1O[C@H]1CCC[C@H](C(=O)O)C1 [Example 279, (1S,3S)-3-((6-(5-(((5-(2-cyclopropyl-ethyl)-1,2,4-oxadiazol-3-yl)amino)methyl)-1-methyl-1H-1,2,3-triazol-4-yl)-5-fluoro-2-methylpyridin-3-yl)oxy)cyclohexane-1-carboxylic acid]
4 | 58 |  | Cc1nc(-c2nnn(C)c2Cn2nnc(-c3cccc(F)c3)n2)ccc1O[C@H]1CCC[C@H](C(=O)O)C1 [Example 320, (1S,3S)-3-((6-(5-((5-(3-fluoro-phenyl)-2H-tetrazol-2-yl)methyl)-1-methyl-1H-1,2,3-triazol-4-yl)-2-methylpyridin-3-yl)oxy)cyclo-hexane-1-carboxylic acid]
5 |  | 228 | CCCCN(C)c1nnn(Cc2c(-c3ccc(O[C@H]4CCC[C@H](C(=O)O)C4)c(C)n3)nnn2C)n1 [Example 361, (1S,3S)-3-((6-(5-((5-(butyl(methyl)amino)-2H-tetrazol-2-yl)methyl)-1-methyl-1H-1,2,3-triazol-4-yl)-2-methylpyridin-3-yl)oxy)cyclo-hexane-1-carboxylic acid]
6 | 243 |  | CCCOCc1nnnn1Cc1c(-c2ccc(O[C@H]3CCC[C@H](C(=O)O)C3)c(C)n2)nnn1C [Example 305, (1S,3S)-3-{[2-methyl-6-(1-methyl-5-{[5-(propoxymethyl)-1H-1,2,3,4-tetrazol-1-yl]methyl}-1H-1,2,3-triazol-4-yl)pyridin-3-yl]oxy}cyclohexane-1-carboxylic acid]
7 | 23 |  | Cc1ccc(Oc2nnn(Cc3c(-c4ccc(O[C@H]5CCC[C@H](C(=O)O)C5)c(C)n4)nnn3C)n2)cc1 [Example 326, (1S,3S)-3-((2-methyl-6-(1-methyl-5-((5-(p-tolyloxy)-2H-tetrazol-2-yl)methyl)-1H-1,2,3-triazol-4-yl)pyridin-3-yl)oxy)cyclohexane-1-carboxylic acid]
8 | 35 |  | Cc1nc(-c2nnn(C)c2Cn2ncc(CC(C)C)n2)ccc1O[C@H]1CCC[C@H](C(=O)O)C1 [Example 260, (1 S,3 S)-3-((6-(5-((4-Isobutyl-2H-1,2,3-triazol-2-yl)methyl)-1-methyl-1H-1,2,3-triazol-4-yl)-2-methylpyridin-3-yl)oxy)cyclohexane-1-carboxylic acid]
9 | 76 |  | CCCc1cn(Cc2c(-c3ccc(O[C@H]4CCC[C@H](C(=O)O)C4)c(C)n3)nnn2C)nn1 [Example 269, (1 S,3S)-3-((2-methyl-6-(1-methyl-5-((4-propyl-1H-1,2,3-triazol-1-yl)methyl)-1H-1,2,3-triazol-4-yl)pyridin-3-yl)oxy)cyclohexane-1-carboxylic acid]
10 |  | 339 | Cc1nc(-c2nnn(C)c2Cn2nnc(N(C)CC3CC3)n2)ccc1O[C@H]1CCC[C@H](C(=O)O)C1 [Example 408, (1S,3S)-3-({6-(5-({5-[(cyclopropylmethyl)(methyl)amino]-2H-1,2,3,4-tetrazol-2-yl}methyl)-1-methyl-1H-1,2,3-triazol-4-yl]-2-methylpyridin-3-yl}oxy)cyclohexane-1-carboxylic acid]
11 | 24 |  | Cc1nc(-c2nnn(C)c2Cn2nnc(CCC(C)C)n2)ccc1O[C@H]1CCC[C@H](C(=O)O)C1 [Example 310, (1S,3S)-3-{[2-methyl-6-(1-methyl-5-{[5-(3-methylbutyl)-2H-1,2,3,4-tetrazol-2-yl]methyl}-1H-1,2,3-triazol-4-yl)pyridin-3-yl]oxy}cyclohexane-1-carboxylic acid]

The remaining lines, values behind:

Row | SMILES | IC50 [1] [nM] | IC50 [nM]
12 | Cc1nc(-c2nnn(C)c2Cn2cnc(-c3ccccc3)n2)ccc1O[C@H]1CCC[C@H](C(=O)O)C1 [Example 208, (1S,3S)-3-((2-Methyl-6-(1-methyl-5-((3-phenyl-1H-1,2,4-triazol-1-yl)methyl)-1H-1,2,3-triazol-4-yl)pyridin-3-yl)oxy)cyclohexane-1-carboxylic acid] | 370 | 
13 | Cc1nc(-c2nnn(C)c2Cc2noc(CCC3CCC3)n2)ccc1O[C@H]1CCC[C@H](C(=O)O)C1 [Example 232, (1S,3S)-3-((6-(5-((5-(2-cyclobutylethyl)-1,2,4-oxadiazol-3-yl)methyl)-1-methyl-1H-1,2,3-triazol-4-yl)-2-methylpyridin-3-yl)oxy)cyclohexane-1-carboxylic acid] | 8 | 
14 | Cc1nc(-c2nnn(C)c2Cn2nnc(Cc3ccccc3)n2)ccc1O[C@H]1CCC[C@H](C(=O)O)C1 [Example 109] | 14 | 
15 | Cc1nc(-c2nnn(C)c2CNc2ncn(C3CCCCC3)n2)ccc1O[C@H]1CCC[C@H](C(=O)O)C1 [Example 36] | 147 | 
16 | Cc1nc(-c2nnn(C)c2CNc2nc(Cc3ccccc3)no2)ccc1O[C@H]1CCC[C@H](C(=O)O)C1 [Example 63] | 38 | 
17 | Cc1nc(-c2nnn(C)c2Cn2cc(COC(C)(C)C)nn2)ccc1O[C@H]1CCC[C@H](C(=O)O)C1 [Example 88] | 2930 | 
18 | Cn1nnc(-c2ccc(O[C@H]3CCC[C@H](C(=O)O)C3)c(C#N)n2)c1Cn1cc(Cc2ccccc2)nn1 [Example 91] | 109 | 
19 | CCCc1nc(Cc2c(-c3ccc(O[C@H]4CCC[C@H](C(=O)O)C4)c(C)n3)nnn2C)no1 [Example 235, (1S,3S)-3-((2-methyl-6-(1-methyl-5-((5-propyl-1,2,4-oxadiazol-3-yl)methyl)-1H-1,2,3-triazol-4-yl)pyridin-3-yl)oxy)cyclohexane-1-carboxylic acid] | 59 | 
20 | Cc1nc(-c2nnn(C)c2CNc2noc(CC3CC3(F)F)n2)ccc1O[C@H]1CCC[C@H](C(=O)O)C1 (stereo partly shown) [Example 196] | 28 | 
21 | Cc1nc(-c2nnn(C)c2Cc2noc(-c3ccccc3)n2)ccc1O[C@H]1CCC[C@H](C(=O)O)C1 [Example 238, (1S,3S)-3-((2-methyl-6-(1-methyl-5-((5-phenyl-1,2,4-oxadiazol-3-yl)methyl)-1H-1,2,3-triazol-4-yl)pyridin-3-yl)oxy)cyclohexane-1-carboxylic acid] | 161 | 
22 | Cc1nc(-c2nnn(C)c2CNc2noc(Cc3ccccc3)n2)ccc1O[C@H]1CCC[C@H](C(=O)O)C1 [Example 67] | 14 | 
23 | Cc1nc(-c2nnn(C)c2COc2nnn(CC(C)C)n2)ccc1O[C@H]1CCC[C@H](C(=O)O)C1 [Example 136, (1S,3S)-3-((6-(5-(((2-Isobutyl-2H-tetrazol-5-yl)oxy)methyl)-1-methyl-1H-1,2,3-triazol-4-yl)-2-methylpyridin-3-yl)oxy)cyclohexane-1-carboxylic acid] | 20 | 
24 | Cc1nc(-c2nnn(C)c2CNc2ncc(-c3ccccn3)o2)ccc1O[C@H]1CCC[C@H](C(=O)O)C1 [Example 20] | 99 | 
25 | Cc1nc(-c2nnn(C)c2CNc2nnc(C3CC3)s2)ccc1O[C@H]1CCC[C@H](C(=O)O)C1 [Example 7] | 2240 | 
26 | Cc1nc(-c2nnn(C)c2CNc2noc(COCCCCF)n2)ccc1O[C@H]1CCC[C@H](C(=O)O)C1 [Example 410, (1S,3S)-3-((6-(5-(((5-((4-fluoro-butoxy)methyl)-1,2,4-oxadiazol-3-yl)amino)methyl)-1-methyl-1H-1,2,3-triazol-4-yl)-2-methylpyridin-3-yl)oxy)cyclohexane-1-carboxylic acid] |  | 43
27 | CCCc1nnc(NCc2c(-c3ccc(O[C@H]4CCC[C@H](C(=O)O)C4)c(C)n3)nnn2C)o1 [Example 52] | 396 | 
28 | Cc1nc(-c2nnn(C)c2CNc2nnc(CCC(C)C)o2)ccc1O[C@H]1CCC[C@H](C(=O)O)C1 [Example 55] | 45 | 
29 | Cc1nc(-c2nnn(C)c2CNc2cnn(-c3ccc(F)cc3)n2)ccc1O[C@H]1CCC[C@H](C(=O)O)C1 [Example 33, (1 S,3 S)-3-((6-(5-(((2-(4-fluorophenyl)-2H-1,2,3-triazol-4-yl)amino)methyl)-1-methyl-1H-1,2,3-triazol-4-yl)-2-methylpyridin-3-yl)oxy)cyclohexane-1-carboxylic acid] | 84 | 
30 | Cc1nc(-c2nnn(C)c2Cc2nc(Cc3ccccc3)no2)ccc1O[C@H]1CCC[C@H](C(=O)O)C1 [Example 244, (1S,3S)-3-((6-(5-((3-benzyl-1,2,4-oxadiazol-5-yl)methyl)-1-methyl-1H-1,2,3-triazol-4-yl)-2-methylpyridin-3-yl)oxy)cyclohexane-1-carboxylic acid] | 40 | 
31 | Cc1nc(-c2nnn(C)c2CNc2nnc(-c3ccccc3)o2)ccc1O[C@H]1CCC[C@H](C(=O)O)C1 [Example 49] | 180 | 
32 | Cc1nc(-c2nnn(C)c2CNc2noc(C3CC3(C)C)n2)ccc1O[C@H]1CCC[C@H](C(=O)O)C1 (stereo partly shown) [Example 182] | 17 | 
33 | CCCc1nc(OCc2c(-c3ccc(O[C@H]4CCC[C@H](C(=O)O)C4)c(C)n3)nnn2C)no1 [Example 131] | 19 | 
34 | Cc1nc(-c2nnn(C)c2Cc2nc(CC(C)C)no2)ccc1O[C@H]1CCC[C@H](C(=O)O)C1 [Example 243, (1S,3S)-3-((6-(5-((3-isobutyl-1,2,4-oxadiazol-5-yl)methyl)-1-methyl-1H-1,2,3-triazol-4-yl)-2-methylpyridin-3-yl)oxy)cyclohexane-1-carboxylic acid] | 58 | 
